Data from US10729636B2, “Compositions comprising peptide [sequence]” (NURITAS LIMITED, priority 2016, dated 2020).

How the values were obtained:
[1] = system: Human Dermal Fibroblasts (HDF); assay: Cell proliferation assay (BrDu), HDF; assay type: cell-based; conditions: HDF cells; 5, 0.5 or 0.05 μg/ml, 24 h; compared with untreated control; FIG. 1
Description: BrDu is incorporated into newly synthesised DNA strands of actively proliferating cells. Following partial denaturation of double stranded DNA, BrDu is detected immunochemically allowing the assessment of the population of cells which are synthesizing DNA.
Human Dermal Fibroblasts (HDF—Sigma 10605a) were seeded in a 96 well plate at 10,000 cells per well in DMEM containing 10% fetal calf serum (FCS), 1% Pen/strep, 1% L-glutamine and allowed to adhere for 24 h.
Following the initial 24 h incubation the cells were incubated with 5 μg/ml, 0.5 μg/ml or 0.05 μg/ml synthetic peptide for 24 h respectively.
After 18 h incubation with synthetic peptides 20 μl BrDu reagent was added to each well. At 24 h incubation the cells were fixed and the amount of […] was measured using the BrdU Cell Proliferation Assay, all steps were carried out according to the manufacturer's instructions.

[2] = system: Human Dermal Fibroblasts (HDF); assay: Collagen production assay (hydroxyproline ELISA); assay type: cell-based; conditions: 5, 1 or 0.1 μg/ml, 96 h, compared with untreated control, FIG. 3
Description: Study Description Hydroxyproline in tissue preparations is a direct measure of the amount of collagen present. […] Human Hydroxyproline ELISA kit assay is designed to measure hydroxyproline in tissue or peptide compositions.
Human Dermal Fibroblasts (HDF Sigma 10605a) were seeded in 24 well plates at 50,000 cells per well in DMEM containing 10% fetal calf serum (FCS), 1% Pen/strep, 1% L-glutamine and allowed to adhere for 24 h.
Following the initial 24 h incubation the cells were incubated with 5 μg/ml, 1 μg/ml or 0.1 μg/ml synthetic peptide for 96 h respectively.
After treatment, the cell supernatant was removed and centrifuged. 50 μl of each supernatant was assayed using the […] Human Hydroxyproline ELISA kit. All steps were carried out according to the manufacturer's instructions.

KK.Cg-Ay/J (KKAY mouse) = assay: Blood glucose management in a mouse model of obesity and diabetes; assay type: in vivo; conditions: KKAY mice; 100 μM/kg subcutaneous injection; after 7 days of treatment
Description: (§1) • Species—KK.Cg-Ay/J (KKAY mouse) • Source—Jackson Laboratories • Age—12 weeks of age • Gender—Male • Randomization—Based on baseline fasting glucose Housing and Feeding: • Acclimation—Not less than five days • Housing • Mice will be housed on a 12 hr light/dark cycle • No more than 4 mice per cage depending on size • Ventilated cage rack system • Diet—Standard rodent chow and water ad libitum Design: • Route of administration:—Subcutaneous injection • Dose Volume(s)—10 mL/kg • Dose Levels—Test articles: 100 μM/kg, Metformin: 250 mg/kg • Number per group—10 • Total number of animals—30

protein synthesis = assay: Puromycin ELISA (protein synthesis); assay type: cell-based; conditions: FIG. 10
Source text: Puromycin is an aminonucleoside antibiotic produced by the bacterium Streptomyces alboniger. It is a structural analogue of aminoacyl-transfer RNA and, as such, can be incorporated into elongating peptide chains via the formation of a peptide bond. However, whereas aminoacyl-tRNAs contain a hydrolyzable ester bond, puromycin hasn't it in the equivalent position. Thus, the binding of puromycin to a growing peptide chain prevents a new peptide bond from being formed with the next aminoacyl-tRNA. As a consequence, puromycin binding results in the termination of peptide elongation, and leads to the release of the truncated puromycin bound peptide from the ribosome. […] This later property makes puromycin a potential tool for the measurement of changes in protein synthesis rates.
1. Dispense […] Coating Buffer per well in the required number of wells in a 96 well ELISA plate. Dilute and mix the Protein extract (in the same buffer the sample is in) to […]. Immediately dispense 1 μl/well into plate.
2. Incubate the plate at 4° C. for 16-24 h.
3. Vigorously shake out contents. Wash 1× with 200 ul PBS.
4. Add 200 μl Blocking Solution (5% BSA in PBS). Incubate over the day 4-6 h at RT.
5. Dilute Puromycin antibody in Blocking solution and incubate overnight at 4° C.
8. Wash 2× with 200 ul PBS
9. […]
12. Add Stop solution and read the plate at 450 nm.

Human skeletal myoblasts = assay: Glucose uptake (2-DG), skeletal myoblasts; assay type: cell-based; conditions: 3 h, compared with untreated control
Description: Glucose uptake in skeletal muscle cells was measured using 2-deoxyglucose (2-DG). 2-DG is taken up by glucose transporters and metabolized to 2-DG-6-phosphate (2-DG6P). The amount of accumulated non-metabolized 2-DG6P is proportional to glucose uptake by cells.
Human skeletal myoblasts (Sigma 150-05a) were seeded in a 96 well plate at 10,000 cells per well in Skeletal Muscle Differentiation medium and allowed to differentiated for 72 h prior to experimentation.
The differentiated cells were serum starved for 24 h prior to stimulation with insulin or synthetic peptides. After starvation, the serum free media was removed, cells rinsed with Phosphate Buffered Saline (PBS) and media replaced with 100 μl of Krebs-Ringer-Phosphate-HEPES (KRPH) and incubated for 1 h.
The cells were then stimulated with 100 nM insulin for 30 minutes or 5 μg/ml, 0.5 μg/ml or 0.05 μg/ml synthetic peptide for 3 h respectively.
Following stimulation, the cells were incubated with 10 μl/well of 2-DG solution for 40 min and glucose uptake was measured using the ‘PrismColor Glucose Uptake Assay Kit’ (Molecutools), all steps were carried out according to the manufacturer's instructions. The experiment was repeated using HACAT cells.

Body weight of KKAY mice = assay type: in vivo, mouse; conditions: 100 μM/kg subcutaneous injection, 13 days of treatment
Description: as §1

WKDEAGKPLVK [SEQ ID NO. 1]
cell proliferation [1]: increase
collagen production [2]: increase
blood glucose (KK.Cg-Ay/J (KKAY mouse)): significantly reduced
protein synthesis (protein synthesis): increase
glucose uptake (Human skeletal myoblasts; 0.5 μg/ml, FIG. 6): increase
glucose uptake (Human skeletal myoblasts; 5 μg/ml, FIG. 7): increase
body weight relative to the untreated group (Body weight of KKAY mice): reduced body weight
increase in body weight (Body weight of KKAY mice): did not cause an increase
